As usually defined, the melting point is the temperature of the solid-liquid transition.

Each structure is given as a SMILES string. Values joined by “and” are separate entries in the source; they are usually repeats but may differ in a detail not shown here. Identical values can stand only once.

The compound `Nc1nc(-c2ccccc2)c(-c2ccnc(Nc3cccc(F)c3)n2)s1` gave a melting point of 243 to 245 °C. In turn, `CN1CCN(c2nc(-c3ccccc3)c(-c3ccnc(Nc4ccccc4)n3)s2)CC1` showed a melting point of 239 to 240 °C. For `COc1ccc(-c2cccc(Nc3nccc(-c4sc(N)nc4-c4ccccc4)n3)c2)cc1OC`, the melting point is 236 to 237 °C. The figure for `Nc1nc(-c2ccccc2)c(-c2ccnc(Nc3cccc(CO)c3)n2)s1` is 214 to 215 °C. On to `Nc1nc(-c2ccccc2)c(-c2ccnc(Nc3ccccc3)n2)s1`, for which the melting point was 244 to 245 °C and 247 to 250 °C. In turn, `Nc1nc(-c2ccccc2)c(-c2ccnc(Nc3cccc(Cl)c3)n2)s1` gave a melting point of 243 to 245 °C.

Source of the values: patent US7105517B2 (priority 2001, dated 2006).
